Measured values published in patent US9440914B2, “Method for treating glioblastomas and other tumors” (THE FEINSTEIN INSTITUTE FOR MEDICAL RESEARCH, priority 2013, dated 2016).

System: GL261 tumors
Assay: orthotopic GL261 glioblastoma model in syngeneic C57Bl/6 mice, intracranial delivery by osmotic pump
Assay type: in vivo, C57BL/6J mice
Method: Animal Experiments: All procedures involving mice were conducted in accordance with the National Institutes of Health regulations concerning the use and care of experimental animals. The study of mice was approved by the Institutional Animal Care and Use Committee (IACUC) of the Feinstein Institute. First, 8 week old male C57BL/6J mice were inoculated in the right caudate putamen with GL261 cells. Briefly, animals were placed in a stereotactic frame after pre-anesthesia exposure in a box of 5% isoflurane. Deep anesthesia was maintained on the frame at approximately 2% isoflurane and 2% O2. A burr hole was drilled 1 mm anterior and 2.5 mm to the right of the bregma. With the aid of the stereotactic frame, GL261 cells (2×10^4 cells suspended in 1 μL) were injected with a Hamilton syringe at a depth of 3 mm over a one min time period. Subsequently, the syringe was left in place for 1 min to prevent reflux.
Seven days after implantation of the GL261 cells, an osmotic pump (Alzet, Durect) filled with either 0.42 mg/ml solution of semapimod or vehicle was implanted in a subcutaneous pocket on the dorsal flank of the animal. A catheter with attached cannula delivered the drug intracranially over a period of 2 weeks, at a steady rate of 0.25 μl/h, which is equivalent to a dose of […], assuming no blood-brain barrier permeability of the drug. Starting one day after pump implantation, animals were given 2 Gy whole brain irradiation every other day over a period of 10 days (10 Gy total).
Brains from mice-bearing tumors were frozen on dry ice and stored at −80° C. until processing. The brain was sliced using a cryostat at −20° C. at a thickness of 40 μm (for tumor sizing) or 8 μm for immunohistochemistry. Slices were placed on pre-coated poly-1-lysine slides (Superfrost, Fisher) and fixed in 3.7% formaldehyde in PBS. Sections were stained with Harris-modified haematoxilin solution. Activated microglia were visualized with an Iba1 antibody (Wako). Tumor cell invasion was determined by counting the number of Ki67 (Millipore) positive nuclei located beyond the tumor border. The border was outlined by determining where the bulk of the tumor material was found by Ki67 staining Tumor size was determined as the area of the largest cross section of the tumor, multiplied by the depth of the tumor.
The cell density of the tumor was calculated by counting the total number of cells in 10 fields taken over different sections and multiplying the tumor area by the thickness of the slice (8 μm) to obtain total number of cells in a tumor section. This was then divided by the volume of the tumor section to obtain the number of cells per unit volume. To obtain the total number of cells in a tumor, the cell density was multiplied by the calculated volume of the tumor.
Animals were inoculated with 2×10^4 GL261 cells into the right caudate putamen. To deliver semapimod, an osmotic pump was used that was implanted subcutaneously in the dorsal flank of the animal and fed a transcranial cannula that was inserted into the tumor. In order to mimic a therapeutic setting, tumors were allowed to develop for 1 week before the onset of treatment. To score tumor cell invasion, brain sections were probed for the presence of proliferative antigen Ki67. […] Whereas control tumors display diffuse edges and extensive tumor cell invasion into the surrounding parenchyma, semapimod-treated tumors have a sharply demarcated border (FIG. 4A).

[1] = two weeks after tumor cell inoculation

C/C(=N\NC(=N)N)c1cc(NC(=O)CCCCCCCCC(=O)Nc2cc(/C(C)=N/NC(=N)N)cc(/C(C)=N/NC(=N)N)c2)cc(/C(C)=N/NC(=N)N)c1 [semapimod]
median survival (absence of radiation, controls 20 days, not significant): 22 days
number of Iba1+ microglia per tumor area (equivalent to 6 mg/kg/day intracranially, 1 week): No significant difference
inhibition of tumor cell invasion in vivo (Ki67-positive cells beyond tumor border) (equivalent to 6 mg/kg/day intracranially, 1 week, start 7 days after inoculation): more than 75%
tumor cell density [1]: small but significant increase
tumor size (volume) [1]: robust inhibition
estimated total number of cells in tumor (two weeks after tumor cell inoculation, versus control tumors): significantly less
tumors by histological analysis in surviving animals (with 10 Gy fractionated whole brain irradiation): no detectable tumors
survival beyond the median survival time of control animals (with 10 Gy fractionated whole brain irradiation, most of the animals): at least 40 days
